# Reference: patent US11434241B2, “Pyrimidine derivatives for prevention and treatment of bacterial infections” (UNIVERSITE DE LIEGE, priority 2018, dated 2022)
# Like-named read-outs stand apart in the source and are kept apart here.
# Key:
# [1] = test system: Staphylococcus epidermidis (ATCC 35984, also known as RP62A or MRSE); assay: MIC determination on S. epidermidis (EUCAST, OD600 after overnight growth in MHB); type: cell-based; conditions: for MIC: Staphylococcus epidermidis
# Protocol: The Minimal Inhibitory Concentration (MIC) of molecules 2329, 2348, 2412, 2452 and 2461 was determined on Staphylococcus epidermidis (ATCC 35984, also known as RP62A) according to EUCAST (European Committee on Antimicrobial Susceptibility Testing) recommendations.
# Briefly, a single colony grown on a Tryptic Soy Agar (TSA) plate was resuspended and cultured in Tryptic Soy Broth (TSB) overnight (O/N) in aerobic conditions (37° C. with 220 rpm shaking), next day a 1:50 inoculum in Mueller-Hinton broth (MHB) was incubated in aerobic conditions for 3 hr and an inoculum of 1:100 dilution, corresponding to 3×10^5 CFU/ml, was incubated in presence or absence of different concentrations of the molecules in 1% DMSO (vehicle). After O/N growth the OD of each culture was measured at 600 nm in a spectrophotometer (OD600). The MIC represents the concentration at which there is no visible growth of bacteria, i.e. ΔOD at 600 nm equal to zero (blank is the medium alone).
# The Minimal Inhibitory Concentration (MIC) of pyrazolopyrimidine molecules 2539, 2544, 2666,2676, 2693, 2783, 2784 and 2782 and of purine molecules 2498, 2511, 2525, 2527, 2833, and 2840 was determined on S. epidermidis (ATCC 35984, also known as RP62A or MRSE) according to EUCAST (European Committee on Antimicrobial Susceptibility Testing) recommendations.
# Briefly, a single colony grown on an agar plate was resuspended and cultured in Triptic Soy Broth (TSB) medium overnight (O/N) in aerobic conditions (37° C. with 220 rpm shaking), next day a 1:50 inoculum in Mueller-Hinton broth (MHB) was incubated in aerobic conditions for 3 hr (OD=0.08-0.1) and an inoculum of 1:300 dilution, corresponding to 3×10^5 CFU/ml, was incubated in presence or absence of different concentrations of each of the molecules in 1% DMSO (vehicle). After O/N growth the OD of each culture was measured at 600 nm (600) in a spectrophotometer (Victor 3-Perkin Elmer). The MIC represents the concentration at which there is no visible growth of bacteria, i.e. ΔOD at 600 nm equal to zero (where ΔOD is the difference between the OD with the molecule and the OD of the blank, the medium alone).
# (§1) Molecule 36z has been tested for its potential antibacterial activity by determining its minimal inhibitory concentration (MIC) according to protocols recommended by EUCAST to assess the efficacy of antibiotics against bacterial strains. In brief MIC in MRSA (ATCC BAA-1556) or in Xen29 (Perkin Elmer-ATCC 12600) for 36z (molecule 25 in WO2009/034386) was determined by culturing a single colony of MRSA or Xen29 in brain heart infusion (BHI) broth overnight (O/N) in aerobic conditions (37° C. with 220 rpm shaking), while MIC for MRSE (ATCC 35984) was determined by culturing MRSE in TSB O/N. Next day a 1:100 inoculum in Mueller-Hinton broth (MHB) is incubated in aerobic conditions for 3 hr (OD=0.08-0.1) and an inoculum of 1:300 dilution, corresponding to 3×10^5 CFU/ml, is incubated in presence or absence of different concentrations of the tested molecules in 1% DMSO. After O/N growth the OD of each culture was measured at 600 nm (OD600) in a spectrophotometer (Victor 3-Perkin Elmer). The MIC represents the concentration at which there is no visible growth of bacteria, i.e. ΔOD at 600 nm equal to zero (blank is the medium alone). No antibacterial activity was found against MRSA (ATCC BAA-1556), Xen29 (Perkin Elmer-ATCC 12600 or MRSE (ATCC 35984) strains when the molecule was used at concentrations up to 200 μM.
# MRSE = assay: Minimal Bactericidal Concentration (MBC) for MRSE; type: cell-based, Staphylococcus epidermidis
# Protocol: We have determined the Minimal Bactericidal Concentration (MBC) of the pyrazolopyrimidine molecule 2666 for the MRSA strain and the MBC of the purine molecules 2329 and 2833 for MRSA and the MRSE strain respectively.
# To determine the MBC, bacteria were grown as per MIC determination in presence of the pyrazolopyrimidine molecule 2666 for MRSA or in presence of the purine molecule 2833 for MRSE or 2329 for MRSA. At 24 hours bacteria were plated on TSB agar plates by the broth microdilution method, and colonies formed on the plates were counted next day.
# The MBC represents the lowest concentration at which 99.9% bacteria of the initial inoculum are killed over 24 hours.
# [2] = test system: methicillin-resistant S. aureus (MRSA) ATCC BAA-1556; assay: MIC determination on methicillin-resistant S. aureus; type: cell-based, Staphylococcus aureus; conditions: for antibacterial activity against MRSA (in words): MHB medium; for MIC: Staphylococcus aureus
# Protocol: (§2) Further experiments are conducted using different strains of S. aureus, as clinically relevant Gram-positive bacterial strains: S. aureus ATCC 25904, methicillin-resistant S. aureus (MRSA) ATCC BAA-1556, Glycopeptide intermediate-resistant (GISA) S. aureus Mu-50 (ATCC 700695) in order to determine the Minimal Inhibitory Concentration (MIC) which is the minimal concentration required to prevent bacterial growth. The bioluminescent strain S. aureus Xen29 (ATCC 12600) was also used. This strain is derived from the parental strain S. aureus ATCC 12600, a pleural fluid isolate, which is also designated as NCTC8532.
# (§3) A single colony selected from the different strains of S. aureus is resuspended and cultured in brain heart infusion (BHI) broth overnight (O/N) in aerobic conditions (37° C. with 220 rpm shaking), next day a 1:100 inoculum in Mueller-Hinton broth (MHB) is incubated in aerobic conditions for 3 hr (=OD0.08-0.1) and an inoculum of 1:300 dilution, corresponding to 3×10^5 CFU/ml, is incubated in presence or absence of different concentrations of the tested molecules in 1% DMSO. After O/N growth the OD of each culture was measured at 600 nm (OD600) in a spectrophotometer (Victor 3-Perkin Elmer). The MIC represents the concentration at which there is no visible growth of bacteria, i.e. ΔOD at 600 nm equal to zero (blank is the medium alone). […] The MIC of molecule 2329 against Glycopeptide intermediate-resistant (GISA) S. aureus Mu-50 (ATCC 700695) is in between 25 and 30 μM, while it is above 50 μM for molecules 2348, 2412, and 2452.
# (§4) Further experiments are conducted using different strains of S. aureus, as clinically relevant Gram-positive bacterial strains: methicillin-resistant S. aureus (MRSA) ATCC BAA-1556 and S. aureus Xen29 (Perkin Elmer ATCC 12600).
# (§5) To determine the MIC of the above mentioned molecules in MRSA or in Xen29, a single colony of MRSA or Xen29 is resuspended and cultured in brain heart infusion (BHI) broth overnight (O/N) in aerobic conditions (37° C. with 220 rpm shaking), next day a 1:100 inoculum in Mueller-Hinton broth (MHB) is incubated in aerobic conditions for 3 hr (OD=0.08-0.1) and an inoculum of 1:300 dilution, corresponding to 3×10^5 CFU/ml, is incubated in presence or absence of different concentrations of the tested molecules in 1% DMSO. After O/N growth the OD of each culture was measured at 600 nm (OD600) in a spectrophotometer (Victor 3-Perkin Elmer). The MIC represents the concentration at which there is no visible growth of bacteria, i.e. ΔOD at 600 nm equal to zero (blank is the medium alone).
# as §1
# [3] = test system: S. aureus Xen29 (ATCC 12600); assay: MIC determination on bioluminescent S. aureus Xen29; type: cell-based, Staphylococcus aureus; conditions: for MIC: Staphylococcus aureus; for antibacterial activity / inhibition of Xen29 growth (in words): MHB medium
# Protocol: as §2, §3, §4, §5, §1
# [4] = test system: Murl isozyme from E. faecium; conditions: Table 9 of WO2009/034386; cited from earlier work
# [5] = biological target: Murl isozyme from E. faecalis (Enterococcus faecalis, UniProt Q836J0); conditions: read-out: IC50 Murl isozyme from E. faecalis; Table 9 of WO2009/034386; cited from earlier work
# Murl isozyme from E. faecalis, sequence (Q836J0 whole entry): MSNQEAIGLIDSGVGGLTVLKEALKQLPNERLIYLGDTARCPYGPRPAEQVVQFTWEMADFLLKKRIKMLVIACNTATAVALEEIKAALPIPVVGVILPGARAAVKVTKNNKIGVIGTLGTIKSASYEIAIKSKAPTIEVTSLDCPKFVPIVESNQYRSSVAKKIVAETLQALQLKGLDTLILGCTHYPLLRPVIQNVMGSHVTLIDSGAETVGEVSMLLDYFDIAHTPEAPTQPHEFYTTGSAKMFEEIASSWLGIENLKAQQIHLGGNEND
# [6] = test system: vancomycin-resistant (VRE) E. faecalis ATCC BAA-2365; assay: MIC determination on vancomycin-resistant E. faecalis; type: cell-based, Enterococcus faecalis; conditions: Mueller-Hinton broth (MHB)
# Protocol: Further experiments were conducted using the clinically relevant Gram-positive bacterial strain of vancomycin-resistant (VRE) E. faecalis ATCC BAA-2365, in order to determine the Minimal Inhibitory Concentration (MIC) which is the minimal concentration required to prevent bacterial growth.
# A single colony selected from E. faecalis VRE is resuspended and cultured in the brain heart infusion (BHI) broth overnight (O/N) in aerobic conditions (37° C. with 220 rpm shaking), next day a 1:100 inoculum in Mueller-Hinton broth (MHB) is incubated in aerobic conditions for 3 hr (OD=0.08-0.1) and an inoculum of 1:300 dilution, corresponding to 3×10^5 CFU/ml, is incubated in presence or absence of different concentrations of the tested molecules in 1% DMSO. After O/N growth the OD of each culture is measured at 600 nm (OD600) in a spectrophotometer (Victor 3-Perkin Elmer). The MIC represents the concentration at which there is no visible growth of bacteria, i.e. ΔOD at 600 nm equal to zero (blank is the medium alone).
# S. aureus ATCC 25904 = assay: MIC determination on S. aureus ATCC 25904; type: cell-based; conditions: Staphylococcus aureus, ATCC25904, read-out: MIC S. aureus ATCC25904
# Protocol: as §2, §3
# [7] = MHB medium, tested up to 100 μM, read-out: MIC MRSE
# [8] = ATCC12600, read-out: MIC Xen29 (comparison molecules of WO2009/034386)
# [9] = read-out: MIC MRSE (comparison molecules of WO2009/034386)
# [10] = read-out: MIC MRSA (comparison molecules of WO2009/034386)
SMILES,antibacterial activity / inhibition of MRSE growth (in words) ([1]; MHB medium),"MIC [1, 7] [µM]",antibacterial activity against MRSA (in words) [2],MIC ([2]; read-out: MIC MRSA) [µM],"MIC [3, 8] [µM]","MIC [1, 9] [µM]",IC50 [4] [µM],"MIC [2, 10] [µM]",antibacterial activity / inhibition of Xen29 growth (in words) [3],"MIC ([3]; ATCC12600, read-out: MIC Xen29) [µM]",also measured
"CCCCSc1nc(N[C@@H]2C[C@H]2c2ccc(F)c(F)c2)c2ncn(C)c2n1 [Molecule 2833, 2-(butylthio)-N-((1R,2S)-2-(3,4-difluorophenyl)cyclopropyl)-9-methyl-9H-purin-6-amine]",able to inhibit MRSE growth,30,active,50,–,–,–,–,–,–,"MBC relative to MIC, MRSE (MRSE): around 2 times; MBC (MRSE; Staphylococcus epidermidis, MRSE, 99.9% of initial inoculum killed over 24 hours): 50 µM"
"CCCCSc1nc(N)c2ncn(Cc3c(F)ccc(Cl)c3F)c2n1 [Molecule 36z, 2-(Butylthio)-9-(3-chloro-2,6-difluorobenzyl)-9H-purin-6-amine, reference compound]",–,–,–,–,> 200,> 200,5,> 200,–,–,IC50 [5]: 2 µM
"CCCSc1nc(N[C@@H]2C[C@H]2c2ccc(F)c(F)c2)c2ncn([C@@H]3C[C@H](O)[C@@H](O)[C@H]3O)c2n1 [Molecule 2461, (1S,2R,3S,4R)-4-(6-(((1R,2S)-2-(3,4-difluorophenyl)cyclopropyl)amino)-2-(propylthio)-9H-purin-9-yl)cyclopentane-1,2,3-triol]",–,–,–,–,–,–,–,–,–,–,"MIC ([3]; ATCC12600, read-out: MIC S. aureus Xen29): 20 to 25 µM; MIC [6]: 25 µM; MIC ([1]; Mueller-Hinton broth (MHB), read-out: MIC S. epidermidis RP62): 20 µM; MIC ([2]; read-out: MIC S. aureus MRSA): 25 µM; MIC (S. aureus ATCC 25904): 20 to 25 µM"
"CCCCOc1nc(NCc2cccnc2)c2ncn(Cc3c(F)ccc(Cl)c3F)c2n1 [37z″, 2-Butoxy-9-(3-chloro-2,6-difluorobenzyl)-N-(pyridin-3-ylmethyl)-9H-purin-6-amine, reference compound]",–,–,–,–,> 200,> 200,5,> 200,–,–,–
"CCSc1nc(N[C@@H]2C[C@H]2c2ccc(F)c(F)c2)c2ncn(CC)c2n1 [Molecule 2527, N-((1R,2S)-2-(3,4-difluorophenyl)cyclopropyl)-9-ethyl-2-(ethylthio)-9H-purin-6-amine]",able to inhibit MRSE growth,25,active,25,–,–,–,–,able to inhibit,30,–
"CCSc1nc(N[C@@H]2C[C@H]2c2ccc(F)c(F)c2)c2ncn(C)c2n1 [Molecule 2525, N-((1R,2S)-2-(3,4-difluorophenyl)cyclopropyl)-2-(ethylthio)-9-methyl-9H-purin-6-amine]",able to inhibit MRSE growth,40,active,25,–,–,–,–,able to inhibit,30,–
